This is an account of results in US10328075B2, “Method of treatment and compounds for use therein” (Baker Heart and Diabetes Institute, priority 2015, dated 2019).

No end group written: not given here.

The assay concerns myocardial I-R injury in C57BL/6 mice. The assay is described as follows: Myocardial I-R in mice: cardiac fibrosis, apoptosis and remodelling after 7 days reperfusion. The assay is classed as in vivo, mouse. The settings on record: for Effect on cardiac remodeling 7 days post I-R: 50 mg/kg i.p. How it is done: Male C57BL/6 mice were breed and housed in the AMREP Animal Centre and maintained under a 12 h light/dark cycle. After anaesthesia (i.p., ketamine 80 mg/kg, xylazine 20 mg/kg and atropine 1.2 mg/kg), mice were randomly assigned to 24 h, 48 h and 7 days reperfusion groups and underwent reversible left arterial descending (LAD) ligation as described (Gao XM, 2011; JMCC, 50; Gao XM, 2000, JMCC). Following sedation, mice were intubated and ventilated (Harvard apparatus, MA, USA) with room air mixed with oxygen (tidal volume 0.25 mL, 150 breath/min), and placed on a heating pad. A left thoractomy will be made via the ˜third intercostal space, where the beating heart was located.
The LAD was reversibly ligated using 7-0 silk suture with a slipknot enclosing two releasing rings. Regional ischaemia was confirmed by pale colour of the ligated area. Air was then evacuated from the chest, the cavity was closed and normal respiration was restored. After 40-60 min of ischaemia, blood flow through the left coronary artery was re-established by releasing the slipknot. Sham-operated mice underwent identical surgical procedures except the coronary arteries were not ligated. Three cohorts of mice were scheduled. Cohort 1 was subjected to 40 min ischaemic-24 h reperfusion for the assessment of cardiac necrosis. Cohort 2 was subjected to 60 min occlusion with 48 h reperfusion for the quantification of cardiac and systemic inflammation. The last cohort was subjected to 7 d reperfusion and early cardiac fibrosis was assessed.
Treatment with study drugs: Animals were randomly assigned to different groups and all treatments were administrated 5 min prior to reperfusion of the LAD. The peptide Ac2-26 (1 mg kg^−1) (Chemieliva, Chongqing, China) and its vehicle (10% dimethyl sulfoxide (DMSO) in saline) were intravenously (i.v.) injected via the tail vein. […] Mice then received drug or vehicle injections daily until the experimental endpoint. The two different vehicles groups reflect different study drug solubility and administration routes.
Assessment of cardiac histology and fibrosis: LV hearts fixed in NBF after 40 min ischaema and 7 d reperfusion were embedded in paraffin by the Alfred Pathology Service (Melbourne, Australia) and sectioned at 4 μm with a Leica 2135 microtome (Leica Microsystems, Wetzlar, Germany). Sections were stained with haematoxylin and eosin (H&E) for assessment of myocardial morphology, or picrosirius red (0.1%, Fluka, Bucks, Switzerland; pH2) for cardiac collagen deposition. Images were taken at 1.25× to capture the whole LV. To examine the local infarct area, images were collected at 20× using the microscope (Olympus BX61, Olympus Inc., Ontario, Canada) and QCapture Pro software (version 5.1 for Windows, Media Cybernetic Inc., Maryland, USA). H&E images were scored blindly in random order on a scale of 1 to 5, based on intensity of blue staining of nuclei (1=least, 5=most, classified by independent observer). The area of picrosirius red staining (% LV area) was quantitatively measured using Image-Pro Plus software (Media Cybernetic Inc., Maryland, USA) for sets of LV slides from 48 h reperfusion and 7 d reperfusion study.
Animal Surgery: Adult C57BL/6 mice were randomly assigned to myocardial ischemia-reperfusion (I-R) injury or sham in vivo. Anesthetized mice (ketamine 80 mg/kg, xylazine 20 mg/kg and atropine 1.2 mg/kg, KXA, i.p.) underwent reversible left arterial descending (LAD) ligation as described (Gao et al. 2000 & Gao et al. 2011). Following sedation, mice were intubated and ventilated (Harvard apparatus, MA, USA) with room air mixed with oxygen (tidal volume 0.25 mL, 150 breaths/min), and placed on a heating pad. A left thoractomy was be made around the third intercostal space, where the beating heart was located. The LAD was reversibly ligated using 7-0 silk suture with a slipknot enclosing two releasing rings. Regional ischemia was confirmed by pale color of the ligated area. […]

Take `COc1cccc(Cc2cc(C)nn(C(C)C(=O)Nc3ccc(Br)cc3)c2=O)c1` (stereo not shown) [BIDI-001, N-(4-bromophenyl)-2-[5-(3-methoxybenzyl)-3-methyl-6-oxo-6H-pyridazin-1-yl]-propionamide]: the “Effect on cardiac remodeling 7 days post I-R” value was “reduces cardiac remodeling”. Under “7 days reperfusion”, the “Effect on I-R-induced cardiac fibrosis (picrosirius red)” value (shortened to “Effect on I-R-induced cardiac fibrosis”) is reported as “absent” and the “Effect on LV apoptosis in the infarct area” value is listed as “significantly attenuated”. Besides, the “Cardioprotection: Adverse remodelling” value (Table 9) was “↓↓”.
Take `CC(C)C1C(NC(=O)Nc2ccc(Cl)cc2)C(=O)N(c2ccccc2)N1C` (stereo not shown) [BIDI-002]: the “Effect on cardiac remodeling 7 days post I-R” value is on record as “lacked these cardioprotective actions”. For the same molecule, the “Effect on I-R-induced cardiac fibrosis” value (7 days reperfusion) is on record as “persist”.
As for “Ac2-26: Annexin-A1 N-terminal peptide, peptide ANX-A1 mimetic (Ac-AMVSEFLKQAWFIENEEQEYVQTVK; UniProt P04083 2-26, looked up, fragment)”, the “Effect on I-R-induced cardiac fibrosis” value (7 days reperfusion) was “tended to be inhibited”.
